# Experimental data as given in patent publication US12403161B2, “Compositions for drug delivery and methods of use thereof” (Stellular Bio, Inc., priority 2018, dated 2025).
# Structures can show the parent of a compound that is named as a salt.
# B1: BMP4: bone morphogenic protein 4, Stage 1 media growth factor (protein, UniProt P12644 293-408, looked up)
# Bone morphogenetic protein 4: SPKHHSQRARKKNKNCRRHSLYVDFSDVGWNDWIVAPPGYQAFYCHGDCPFPLADHLNSTNHAIVQTLVNSVNSSIPKACCVPTELSAISMLYLDEYDKVVLKNYQEMVVEGCGCR
# What was measured:
# [1] = system: iPSC differentiation cultures on Laminin 521; assay: WNT agonist addition to iPSC directed differentiation (immunofluorescence); format: cell-based, human; details: for Stage 1 differentiation efficiency at day 6 (CD31 and CD34 immunofluorescence): 0.6 μM CHIR98014 or 6 μM CHIR99021 for the first 48 hours
# Source text: WNT signaling is important during development. The GSK3 kinase inhibitors CHIR98014 and CHIR99021 act as WNT agonists. […] The control and CHIR98014 cultures were then transitioned to Stage 2, where the production and release of preMKs were tracked by immunofluorescence staining of CD41 and CD43.
# human washed platelets = assay: Small-molecule loading of human washed platelets by passive diffusion; format: cell-based; details: 100 μM, 1e7 platelets in 1 ml, ambient temperature, dialysis cassette
# Description: 100 μM of Doxorubicin was used with a preparation of 1e7 platelets in 1 ml of buffer and incubated at ambient temperature for 30, 120, 240, and 1440 minutes under constant agitation on an orbital shaker in a dialysis cassette (Thermofisher #88400). […] A kinetic study was employed to understand the minimum and maximum amount of time necessary for doxorubicin encapsulation in the washed platelets.
# [2] = system: iPSC differentiation cultures; assay: Order and timing of Stage 1 growth factor addition, preMK yields; format: cell-based, human; details: Experiment B
# [3] = system: iPSC 3D differentiation cultures; assay: Soluble Laminin 521 addition in 3D iPSC differentiation, preMK yields; format: cell-based, human; details: for preMK yields in Stage 2 vs control without addition: addition at Day −1 or Day 6
# Description: […] 24 hours later, the media was replaced with Stage 1 media and media exchanges were performed for 6 days. […] Media was then exchanged with Stage 2 media, with or without soluble Laminin 521. 24 hours later, daily half media exchanges were performed for up to 6 additional days.
molecule,measurement,setting,value
Cc1c[nH]c(-c2cnc(NCCNc3ccc(C#N)cn3)nc2-c2ccc(Cl)cc2Cl)n1 [CHIR99021],Stage 1 differentiation efficiency at day 6 (CD31 and CD34 immunofluorescence),[1],dramatic increase
"COc1cccc2c1C(=O)c1c(O)c3c(c(O)c1C2=O)C[C@@](O)(C(=O)CO)C[C@@H]3O[C@H]1C[C@H](N)[C@H](O)[C@H](C)O1 [doxorubicin, Doxorubicin hydrochloride]",incubation time sufficient to see detectable doxorubicin in platelets,human washed platelets,30 min
CHIR98014,Stage 1 differentiation efficiency at day 6 (CD31 and CD34 immunofluorescence),[1],dramatic increase
same,Stage 2 output (visual estimation of CD41+ cells),[1]; 0.6 μM in first 48 hours of Stage 1,higher output
"FGF2: basic fibroblast growth factor, Stage 1 media growth factor",requirement of growth factor during Stage 1 differentiation,[2],critical for differentiation to proceed effectively
Laminin 521: soluble recombinant human protein Laminin 521,preMK yields in Stage 2 vs control without addition,[3]; 96-well U-bottom ultra-low adherent plate,increased the preMK yields
same,preMK yields in Stage 2 vs control without addition,[3]; agitated 6-well ultra-low adherent plate on orbital shaker,increased the preMK yields
same,Laminin 521 effect on preMK yields with single-cell passaged iPSCs,[3]; self-aggregation in NutriStem,effect was amplified
B1,requirement of growth factor during Stage 1 differentiation,[2],dispensable beyond 24 hours
